Laboratory results taken from PMC12007624 (Open Forum Infectious Diseases, 2025).

Experiments:
[1] = Pharmacokinetics of immunosuppressants before and 2 weeks after ART switch; type: in vivo, human; settings: for AUC % Change / Cmax % Change / Cmin % Change: after vs before ART switch, P > .05
[2] = Pharmacokinetics of RAL before and DTG after switch to DTG-based ART; type: in vivo, human; settings: SOT recipients receiving immunosuppressants
[3] = tested on: renal organic cation transporter OCT2; settings: renal tubules; interferes with creatinine clearance; cited from earlier work
[4] = tested on: multidrug and toxin extrusion transporter MATE1; settings: renal tubules; cited from earlier work

Structure (SMILES): C=CC[C@@H]1/C=C(\C)C[C@H](C)C[C@H](OC)[C@H]2O[C@@](O)(C(=O)C(=O)N3CCCC[C@H]3C(=O)O[C@H](/C(C)=C/[C@@H]3CC[C@@H](O)[C@H](OC)C3)[C@H](C)[C@@H](O)CC1=O)[C@H](C)C[C@@H]2OC [Tacrolimus, tacrolimus]
- Cmin ([1]; After ART switch (2 weeks on DTG-based ART), blood, median (IQR)): 4.4 (4.3, 8.5) ng/mL
- Tmax ([1]; After ART switch (2 weeks on DTG-based ART), median (IQR)): 2 (1, 2) h
- Cmin ([1]; Before ART switch (RAL-based ART), blood, median (IQR)): 6.2 (5.2, 8.9) ng/mL
- AUC % Change [1]: −9%
- Cmax % Change [1]: 14%
- Cmin % Change [1]: −29%
- Cmax % Change ([1]; listed as tacrolimus): +14%

Structure (SMILES): C[C@@H]1CCO[C@H]2Cn3cc(C(=O)NCc4ccc(F)cc4F)c(=O)c(O)c3C(=O)N12 [DTG, Dolutegravir]
- plasma levels versus normal range [2]: in the normal range
- effect on OCT2 [3]: inhibits
- effect on MATE1 [4]: potentially

Structure (SMILES): Cc1nnc(C(=O)NC(C)(C)c2nc(C(=O)NCc3ccc(F)cc3)c(O)c(=O)n2C)o1 [RAL, Raltegravir]
- plasma levels versus normal range [2]: in the normal range

Structure (SMILES): COc1c(C)c2c(c(O)c1C/C=C(\C)CCC(=O)O)C(=O)OC2 [Mycophenolic Acid, mycophenolic acid]
- Cmin ([1]; After ART switch (2 weeks on DTG-based ART), plasma, median (IQR)): 2.9 (1.7, 4) µg/mL
- Cmin ([1]; Before ART switch (RAL-based ART), plasma, median (IQR)): 1.9 (1.5, 2.5) µg/mL
- AUC % Change [1]: 16%
- Cmax % Change [1]: 63%
- Cmin % Change [1]: 53%
- AUC % Change ([1]; listed as mycophenolic acid): +16%
- Cmax % Change ([1]; listed as mycophenolic acid): +63%
- Cmin % Change ([1]; listed as mycophenolic acid): +53%
